# According to patent US7341991B2, “Inhibitors of amyloid precursor protein processing” (Posco, priority 2004, dated 2008):
# Entries after “also recorded” stand apart in the source; their conditions may differ. Primed or numbered codes have the meaning given here. Where no end group is shown, it is not given here. [ ]: non-standard residue; d: D form. FITC′ = fluorescein isothiocyanate label; Ahx = NCCCCCC(=O)O
# Key:
# [1] = tested on: cleavage of Substrate M by rhBACE (recombinant human β-secretase); assay: Fluorometric (FRET) assay for cleavage of F-Substrate M by β-secretase; type: biochemical; details: for inhibitory activity of deletion peptides on cleavage of Substrate M: 10 inhibitor/substrate ratio, Substrate M 50 μM; for inhibitory activity group on Substrate M cleavage: tested at various concentrations (FIG. 8); for inhibition of cleavage of Substrate M by β-secretase: in vitro
# From the text: This assay system utilizes fluorescence resonance energy transfer (FRET) technology. Substrate M was synthesized with two fluorophores, a fluorescent donor and a proprietary quenching acceptor (purchased from a commercial source, R&D Systems). […] Upon cleavage of substrate by β-secretase, the fluorophore is separated from the quenching group, restoring the full fluorescence yield of donor.
# Substrate labeled with fluorophores will be called F-Substrate M (R&D Systems). Recombinant human β-secretase will be called rhBACE (recombinant human β-site APP cleavage enzyme) (purchased from R&D systems).
# […] Cleavage by rhBACE was detected by reading emitted fluorescence level.
# In this assay system, fluorescence resonance energy transfer (FRET) technology was utilized. […] After pre-incubation, substrate and HC peptide mixture in assay buffer was transferred to FluoroNunc™ 96 well white plate (Nunc, Roskilde, Denmark), and rhBACE1 (70 nM) was added. Time-dependent emission of fluorescence (excitation at 320 nm, emission at 405 nm) was monitored in a Molecular Devices SpectraMax Gemini EM fluorescence reader (CA, USA) for 1 h at 37° C. All assays were carried out in duplicate.
# [2] = tested on: Aβ production in HEK 293-APP cells; assay: Measurement of Aβ level in culture media (Aβ1-40 immunoassay); type: cell-based, human; details: HEK293-APP cells
# Experimental: Human embryonic kidney (HEK) 293 cells stably transformed with the gene for APP695 (HEK 293-APP) were used for studies on the inhibitory activity of HC peptides. HEK 293-APP cells were generously supplied by Dr. T W Kim (Columbia University, NY, USA). HEK 293-APP cells were cultured in Dulbecco's Modified Eagle's Medium (DMEM) (Invitrogen, CA, USA) with 10% fetal bovine serum (HyClone, UT, USA) and 300 μg/ml of geneticin (Invitrogen, CA, USA) in a humidified atmosphere of 5% CO2, 95% air at 37° C. Cells were subcultured after trypsinization, and the medium was changed every 2-3 days.
# The culture media from the peptide-treated cells (see above) was harvested and centrifuged at 3500×g for 10 min. Amount of Aβ in the supernatant was determined with human Aβ1-40 immunoassay kits (Signal Select™, BioSource, CA, USA) according to the instruction provided by the company.
# [3] = tested on: cleavage of APP by BACE1 (CTFβ) in HEK 293-APP cells; assay: Level of CTFβ in treated cells (immunoblot, 6E10); type: cell-based, human; details: HEK293-APP cells; for accumulation of cleavage product CTFβ: 9 h
# Experimental: When the confluency of the cells reached 90%, the cells were washed with PBS once, and HC peptide in serum free DMEM was added to the cells. […] The lysed cells were centrifuged at 12000×g for 10 min at 4° C. The protein in the supernatant was determined by bicinchoninic acid assay (Pierce, IL, USA) [Smith, P. K., Krohn, R. I., Hermanson, G. T., Mallia, A. K., Gartner, F. H., Provenzano, M. D., Fujimoto, E. K., Goeke, N. M., Olson, B. J., and Klenk, D. C. […] After electrophoresis, the proteins in the gel were electrophoretically transferred onto a polyvinylidene difluoride (PVDF) membrane at 100 mA for 80 min. The blotted membrane was fixed with 0.2% glutaraldehyde in PBS for 45 min at RT and treated for 5 min in boiling PBS. CTFβ (the C-terminal fragment of APP generated by BACE1) was detected by treatment of the membrane with 0.5 μg/ml of anti-Aβ N terminal 6E10 antibody (Signetlabs, Inc., MA, USA) followed by incubation with 0.2 μg/ml of anti-mouse antibody coupled with HRP (Amersham Biosciences Ltd. Uppsala, Sweden). The developed film was scanned and the density of CTFβ band was determined by Scion Image Program (Scion Corporation, MD, USA).
# [4] = molecular target: T1, Substrate W (SEVKMDAEFR, β-secretase cleavage site of wild type APP) (Homo sapiens, UniProt P05067); assay: Binding of biotin-labeled Substrate W to immobilized complementary (HC) peptides; details: biotin-labeled Sub W, peptide immobilized on plate
# T1 construct: purchased Peptron, Inc; host or cells: chemical synthesis
# Experimental: (§1) Complementary peptides (0.2, 2, 20, and 200 μM) were dissolved in phosphate buffered saline (PBS) (pH 7.4) and fixed to microtiter wells for 5 hr at 37° C. The wells were blocked with blocking buffer (3% BSA/PBS) for 1 hr at 37° C. Either N-terminally biotinylated Substrate W or M (20 μM) in blocking buffer was added and incubated for overnight at 4° C. Streptavidin-horseradish peroxidase in blocking buffer was added to detect resulting bound substrates. The plate was incubated for 2 hr at room temperature (RT), followed by addition of 3, 3′, 5,5′-tetramethyl-benzidine (TMB) as substrate for horseradish peroxidase for color reaction.
# In particular, for Substrate W, complementary peptides (200 μM) dissolved in phosphate buffered saline (PBS) (pH 7.4) were chemically coupled to Reacti-Bind Maleic Anhydride Activated Polystyrene wells (Pierce Biotechnology, Inc.) for overnight at room temperature (RT). Remaining active sites of the plate were inactivated by adding ethanolamine (1 M) for 1 hr at RT. The wells were blocked with blocking buffer (3% BSA/PBS) for 1 hr at RT. N-terminally biotinylated Substrate W (20 μM) in blocking buffer was added and incubated for 3 hr at RT. Streptavidin-horseradish peroxidase in blocking buffer was added to detect resulting bound substrates. The plate was incubated for 2 hr at room temperature (RT), followed by addition of 3,3′,5,5′-tetramethyl-benzidine (TMB) as substrate for horseradish peroxidase for color reaction.
# (§2) Reacti-Bind™ maleic anhydride-activated polystyrene plate (Pierce, IL, USA) was coated with 50 μl of HC peptide (200 μM in distilled water) by chemical coupling for 3 h at room temperature (RT) and washed three times with phosphate buffered saline (PBS) containing 0.05% tween 20 (PBST). The plate was blocked with blocking buffer (0.5% gelatin in PBS) for 1 h at RT. After discarding blocking buffer, biotinylated BACE1 substrates (200 μM) in blocking buffer was applied on the plate and incubated for 2.5 h at RT. Each well was washed three times with PBST. The bound biotinylated BACE1 substrates were detected by incubation with streptavidin-horseradish peroxidase (Str-HRP, 125 mU/ml in blocking buffer) for 2 h at RT. Color reaction was carried out with 50 μl of 3,3′,5,5′-Tetramethylbenzidine Liquid Substrate (Sigma-Aldrich, MO, USA). After stopping the reaction by addition of an equal volume of 1 N HCl, absorbance at 450 nm was read in an automated ELISA reader (EL 312e, Bio-Tek Instruments, VT, USA). All assays were carried out in duplicate.
# [5] = tested on: Substrate M (SEVNLDAEFR, β-secretase cleavage site of APPsw); assay: Binding of biotin-labeled Substrate M to immobilized complementary (HC) peptides; details: biotin-labeled Sub M, peptide immobilized on plate
# Experimental: as §1, §2
# [6] = tested on: APP processing in HEK293-APP cells; assay: Cell based assay of APP processing (βCTF, Western blot) in HEK293-APP cells; set-up: species or system human
# Experimental: In the neuronal cells of the brain, APP is processed by α-secretase or β-secretase. To investigate the effects of the inhibitors on the cell, a cell based assay system was developed as described in FIG. 10. C-terminal fragment of APP remaining on the cell membrane was detected by Western blot. The resulting C-terminal fragments, αCTF or βCTF are further processed by γ-secretase. However, if the cells are treated with the γ-secretase inhibitor, this processing is blocked. As a result, αCTF or βCTF accumulate in the cell. If β-secretase inhibitor or APP inhibitor is added, this processing is blocked and βCTF disappears.
# To test APP inhibitor activities in cells, three complementary peptides, c-Sub M, c-Sub MΔC6, and c-Sub MΔN1C1, which show high absorbance in binding test, were added to whole cell extracts of HEK293-APP cells (Lanes 2, 3, and 4 in FIG. 11). In addition, γ-secretase inhibitor and cholesterol were added to the cells to increase βCTF level. Commercially available peptide-based β-secretase inhibitor was included as control (Lane 6, FIG. 11). To detect the N-terminal fragment of β-amyloid which is a product of APP processing, 6E10 antibody was employed. […] Recently, it has been reported that the commercially available peptide-based inhibitor had to be linked to an oligoarginine transporter peptide to have inhibitory activity against cells. Therefore, mimetic approach is adopted to produce cell permeable analogs. (Chang et al. J. Neurochemistry 2004; 89:1409-1416).
# After confirming the ability of the oligo-arginine coupled APP inhibitors to enter the cells, the inhibitors were applied to HEK293-APP cells overexpressing APP to test their inhibitory activities on APP processing. […] This inhibitor started to show significant inhibitory activity beginning from 0.1 μM (lower panel).
substance,measurement,setting,value
CIQI (CIQI-NH2) [C-Sub MΔN3C3],inhibitory activity of deletion peptides on cleavage of Substrate M,[1],considerable inhibitory activity
same,inhibitory activity group on Substrate M cleavage,[1],medium activity
CIQIHF (CIQIHF-NH2) [c-Sub M ΔN3C1],inhibitory activity of deletion peptides on cleavage of Substrate M,[1],considerable inhibitory activity
same,inhibitory activity for cleavage of f-Sub M by rhBACE1,"[1]; HC peptide 0.5 mM, f-Sub M 10 μM (Table 2)",without sacrificing the inhibitory activity too much
same,inhibition of cleavage of Substrate M by β-secretase,[1]; rhBACE1,maintains much of the original activity of c-Sub M; also recorded: less active than longer HC peptide
same,inhibitory activity relative to c-Sub M ΔN1C1,[1]; substrate concentration 10 μM,about one tenth
same,inhibitory activity group on Substrate M cleavage,[1],less activity
NH2-(CH2)5-CO—Cys-Ile-Gln-Ile-His-Phe-NH2 ([Ahx]CIQIHF-NH2; N-terminus assumed; SMILES CC[C@H](C)[C@H](NC(=O)[C@H](CCC(N)=O)NC(=O)[C@@H](NC(=O)[C@H](CS)NC(=O)CCCCCN)[C@@H](C)CC)C(=O)N[C@@H](Cc1c[nH]cn1)C(=O)N[C@@H](Cc1ccccc1)C(N)=O) [AHX-c-Sub M ΔN3C1],reduction of amount of Aβ released,"[2]; 6.25 μM, 9 h",about 70%
same,inhibition of Aβ production / APP processing in the cells,[2],reduced in a concentration dependent manner
same,forms of CTFβ whose accumulation is inhibited,[3],both forms
same,accumulation of cleavage product CTFβ,[3],inhibited accumulation
same,in vitro inhibitory activity relative to non-modified c-Sub M ΔN3C1,"[1]; f-Sub M, rhBACE1",half
RLHFYLRLKA [Sub W-c],binding to Substrate W,[4],do not bind
same,inhibition of cleavage of Substrate M by β-secretase,[1]; rhBACE1,do not inhibit cleavage
RLHLDLRLKA [Sub M-c],inhibitory activity for cleavage of f-Sub M by rhBACE1,"[1]; HC peptide 1 mM, f-Sub M 10 μM",not
same,inhibition of cleavage of Substrate M by β-secretase,[1]; rhBACE1,do not inhibit cleavage
same,binding to Substrate M,[5],do not bind and not
SEFC [c-Sub MΔC6],inhibitory activity on APP processing,[6]; βCTF,none of the inhibitors tested showed inhibitory activity
SEFCI (SEFCI-NH2) [c-SubM ΔC5],inhibitory activity group on Substrate M cleavage,[1],medium activity
SEFCIHLHFR (SEFCIHLHFR-NH2) [c-Sub W],binding to Substrate W,[4],bind
same,inhibitory activity for cleavage of f-Sub M by rhBACE1,"[1]; HC peptide 1 mM, f-Sub M 10 μM",higher inhibitory activity
same,inhibition of cleavage of Substrate M by β-secretase,[1]; rhBACE1,inhibit cleavage
same,inhibitory activity group on Substrate M cleavage,[1],medium activity
same,binding to Substrate M,[5],weak but significant binding
SEFCIQI (SEFCIQI-NH2) [c-SubM ΔC3],inhibitory activity group on Substrate M cleavage,[1],most active
SEFCIQIHF [c-Sub M ΔC1],binding to Substrate M,[5],relatively high binding activity
"c-Sub M-R9: c-Sub M coupled with oligo-arginine (9 Arginines), labeled with FITC using a linker AHX ({FITC′-Ahx}-SEFCIQIHFRRRRRRRRRR)",inhibitory activity on APP processing,[6]; 10 μM,no inhibitory activity
same,inhibitory activity on APP processing,[6]; low concentration,some inhibitory activity
same,inhibition of cleavage of Substrate M by β-secretase,[1]; rhBACE1,no inhibitory activity
"c-Sub MΔN1C1-R9: c-Sub MΔN1C1 coupled with oligo-arginine (9 Arginines), labeled with FITC using a linker AHX ({FITC′-Ahx}-EFCIQIHFRRRRRRRRR)",inhibitory activity on APP processing,[6]; βCTF,inhibitory activity in a concentration dependent manner
same,inhibition of cleavage of Substrate M by β-secretase,[1]; rhBACE1,less inhibitory activity
β-secretase inhibitor IV [reference compound],inhibition of production of Aβ,[2]; 2 μM,about 90%
same,forms of CTFβ whose accumulation is inhibited,[3],only the nonphosphorylated form
same,accumulation of cleavage product CTFβ,[3],inhibited accumulation
